According to patent publication US20180000817A1, “TREATMENT OF HUTCHINSON-GILFORD PROGERIA SYNDROME AND DISEASES RELATED TO VASCULAR AGEING” (BIOCANT - ASSOCIAÇÃO DE TRANSFERÊNCIA DE TECNOLOGIA, priority 2015, published 2018):

Key:
HGPS-iPSC SMCs [1] = assay: Response to farnesyltransferase inhibitor: prelamin A and nuclear morphology by immunofluorescence; format: cell-based, human; details: one dose 1 μM, after 48 h
Procedure: To evaluate whether HGPS-iPSC SMCs could respond to farnesyltransferase inhibitors, as shown for other progeria cell models, cells were treated with one dose of Tipifarnib (1 μM) and after 48 h cells were characterized for the expression of prelamin A. As expected, HGPS-iPSC SMCs accumulate nuclear prelamin A (approximately 95% of the cells), as shown by immunofluorescence (FIG. 12).
Immunofluorescence analysis—In an embodiment, cells were washed with PBS, fixed with 4% paraformaldehyde (Electron Microscopy Sciences) for 15 min at room temperature and washed again with PBS. […] Binding of primary antibodies to specific cells was detected with anti-mouse IgG Cy3 (Sigma) or anti-rabbit IgG Cy3 (JacksonImmunoResearch). Cell nuclei were stained with 4′, 6′-diamidino-2-phenylindole (DAPI) (Sigma) and the slides examined with a regular (Zeiss) or high-content fluorescence microscope (IN Cell 2200, GE Healthcare). Image) software was used to quantify the overall intensity of each image, which was then normalized for cell number.

HGPS-iPSC SMCs [2] = assay: Cell detachment under arterial flow in microfluidic system (loss of function studies); format: cell-based, human; details: for HGPS-iPSC SMC detachment: both clones, arterial flow 20 dyne/cm^2, up to 12 days, MMP13 inhibitor 8 nM, BB-94 20 nM
Procedure: After 4 h, a confluent cell layer was formed, which was then perfused with SmGM-2 medium at physiological flow rate (20 dyne/cm^2). Unless specified, all tests were performed at day 0 and after 4 days on flow culture conditions. Cell number and cell clumps were determined on slides stained with DAPI (20×) and normalized by image area (0.3524 mm^2). Cell clumps areas were evaluated by Image J software.
In case of calcification inhibition studies, cells were treated with SmGM-2 medium containing sodium pyrophosphate (0.9 mM, Sigma), and in case of farnesyltrasferase inhibitor studies, cells were treated with SmGM-2 medium containing Tipifarnib (1 μM) or Lonafarnib (20 μM, Absouce Diagnostics). In MMP, calcification and farnesyltransferase inhibition studies, cells were perfused with medium containing the drug at a flow rate of 20 dyne/cm^2. Medium was changed every 7 days. Cell number and viability (Presto Blue assay) was monitored overtime. In case of MMP-13 inhibition studies, MMP activity was assessed at day 4, and the percentage of progerin positive cells and the expression of phosphatase alkaline were evaluated at day 7.
The complexation of siRNAs with lipofectamine was allowed to proceed for 40 min at room temperature. […] The culture media was changed after 72 h.

HOZ mSMCs = assay: Detachment of progeria mouse SMCs under flow shear stress; format: cell-based; details: flow conditions, media supplemented with inhibitor
Description: Mice. Male^LmnaG609G/G609G, and wild-type were used (Osorio F G, Navarro C L, Cadinanos J, Lopez-Mejia I C, Quiros P M, Bartoli C, Rivera J, Tazi J, Guzman G, Varela I, Depetris D, de Carlos F, Cobo J, Andres V, De Sandre-Giovannoli A, Freije J M, Levy N, Lopez-Otin C. Splicing-directed therapy in a new mouse model of human accelerated aging. Science translational medicine. 2011;3:106ra107). Animal studies were approved by the local <<comité d'éthique pour l'expérimentation animale>> (Marseille Animal Care Commitee, Protocol n° 96-21122012) and conformed to the Directive 2010/63/EU of the European parliament regarding the protection of animals used for experimental and other scientific purposes. Mouse vSMCs (mSMC) were prepared from thoracic aortas of 6 or 18 week-old mice. Briefly, after fat tissue removal around aortic region, aorta was dissected from its origin to the proximity of the diaphragm. Aortas from two mice were put into HBSS 1×, on ice then rinse once in HBSS. Aorta were digested 10 minutes at 37° C. in enzyme solution freshly prepared the day of isolation (Collagenase 1 mg/ml, Soybean Trypsin inhibitor 1 mg/ml, elastase 0.744 units/ml—Worthington biochemical—, penicillin/streptomycin 1%, HBSS 1×). […] The loss of mSMC during time was assessed by the percentage of occupied area.
We also analyzed the effect of MMP13 and BB94 inhibition in HOZ mSMCs. […]

LmnaG609G/G609G mice = assay: In vivo treatment of progeria mice with BB-94; design: species or system mouse
Procedure: In vivo studies. 16 Lmna^G609G/G609G mice (male and female) were used. […] IP injections were used to administrate 30 mg/Kg/day of BB-94 in 3 mg/ml in PBS containing 0.01% Tween 80. The treatment was applied 5 times per week during 6 weeks (from week 5 to week 10). […] At the end of week 10 the mice were sacrificed and the selected parameters were evaluated.
Gene Expression Profiling using Fluidigm. Small parts of mice aortas were frozen to be analyzed. These parts were lysated and homogenized using a MagNA instrument and MagNA Lyser Green Beads (with 5 mm (diameter) stainless steel beads). Total RNA were then isolated and quantified. DELTAgene assays (FlexSix—Fluidigm) were designed for […] transcripts. The pre-amplification process was performed for 14 cycles in order to obtain sensitivity down to a single cDNA molecule. The oligos were synthesized by Sigma and dissolved at a concentration of 100 μM in water. For each assay a Primer Pair Mix was prepared containing 50 μM Forward Primer and 50 μM Reverse Primer. In order to prepare 10× Pre-amplification Primer Mix (500 nM each primer), 10 μL of each of the 96 Primer Pair Mixes (50 μM each primer) was mixed with […] buffer consisting of 10 mM Tris-HCl, pH 8.0; 0.1 mM EDTA; 0.25% Tween-20. In order to prepare 10× Assay (5 μM each primer) each Primer Pair Mix was diluted by mixing 10 μL Primer Pair Mix (50 μM each primer) with 90 μL buffer consisting of 10 mM Tris-HCl, pH 8.0; 0.1 mM EDTA; 0.25% Tween-20. A pre-mix containing cDNA and primers was done and treatment with exonuclease I was performed to remove non-hybridized primers. The Fluidigm® FLEXsix™ Gene expression IFC was used with EvaGreen chemistry. After a prime of the chip, a 10× assay mix and sample mix were prepared and pipetted into the inlets. The chip was loaded and data was collected using the BioMark HD™. Data was analyzed using Fluidigm® Real Time PCR Analysis v2.1 software.
So far no therapy has been developed to target specifically SMC loss. Most of the compounds identified so far in pre-clinical tests to treat progeria have been focused in the reduction of progerin quantities, by either reducing its production or increasing its degradation, in the reduction of progerin toxicity by targeting its aberrant prenylation, or identifying compounds capable of restoring pathological phenotypes downstream of progerin accumulation. Therefore we asked whether the inhibition of MMP13 in LmnaG609G/G609G mice could retard SMC loss. […] LmnaG609G/G609G mice (n=8 for treatment group and control group; age: 5 weeks) were IP injected 5 times a week (30 mg/Kg/day; 3 mg/mL in PBS). […] At this time point we evaluated SMC loss in the aortic arch.

MMP-9 = MMP-9 (Homo sapiens, UniProt P14780); details: cited from earlier work
MMP-7 = target: T1, MMP-7 (Homo sapiens, UniProt P09237); details: cited from earlier work
T1 sequence (P09237 95-267): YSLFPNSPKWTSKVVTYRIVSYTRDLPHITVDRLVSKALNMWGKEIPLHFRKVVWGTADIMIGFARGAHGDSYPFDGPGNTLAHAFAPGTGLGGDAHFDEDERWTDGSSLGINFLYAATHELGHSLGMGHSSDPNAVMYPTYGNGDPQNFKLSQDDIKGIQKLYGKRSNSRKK

Sequence of MMP-9 (P14780 94-707, species assumed): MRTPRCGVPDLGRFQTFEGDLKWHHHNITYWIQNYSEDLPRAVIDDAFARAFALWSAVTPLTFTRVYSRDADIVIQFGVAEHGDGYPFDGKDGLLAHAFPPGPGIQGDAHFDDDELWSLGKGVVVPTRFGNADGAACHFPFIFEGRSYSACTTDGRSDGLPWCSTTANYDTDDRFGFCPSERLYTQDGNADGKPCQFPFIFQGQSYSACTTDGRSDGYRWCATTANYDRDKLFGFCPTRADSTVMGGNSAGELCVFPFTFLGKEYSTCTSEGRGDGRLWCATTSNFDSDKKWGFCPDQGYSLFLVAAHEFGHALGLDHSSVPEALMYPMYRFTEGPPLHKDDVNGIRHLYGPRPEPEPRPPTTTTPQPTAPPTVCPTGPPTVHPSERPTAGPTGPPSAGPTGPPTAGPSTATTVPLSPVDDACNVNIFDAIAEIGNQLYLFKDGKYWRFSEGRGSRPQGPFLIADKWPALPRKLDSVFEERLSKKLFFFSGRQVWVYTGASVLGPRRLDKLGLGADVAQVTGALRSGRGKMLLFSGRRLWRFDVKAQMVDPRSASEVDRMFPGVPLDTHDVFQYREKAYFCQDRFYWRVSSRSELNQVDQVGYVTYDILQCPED

Cn1cncc1[C@@](N)(c1ccc(Cl)cc1)c1ccc2c(c1)c(-c1cccc(Cl)c1)cc(=O)n2C [Tipifarnib]
cells accumulating nuclear prelamin A (HGPS-iPSC SMCs [1]): approximately 95 % of the cells

Cc1cc(CNC(=O)c2cc(C(=O)NCc3ccc(F)c(C)c3)ncn2)ccc1F [MMP-13 inhibitor, pyrimidine-4,6-dicarboxylic acid, bis-(4-fluoro-3-methyl-benzylamide)]
HGPS-iPSC SMC detachment (HGPS-iPSC SMCs [2]): decreased significantly the detachment | detachment of HOZ mSMCs (HOZ mSMCs): significantly delayed

CNC(=O)[C@H](Cc1ccccc1)NC(=O)[C@H](CC(C)C)[C@H](CSc1cccs1)C(=O)NO [Batimastat, (2R,3S)-N4-Hydroxy-2-isobutyl-N1-[(2S)-1-(methylamino)-1-oxo-3-phenyl-2-propanyl]-3-[(2-thienylsulfanyl)methyl]succinamide]
HGPS-iPSC SMC detachment (HGPS-iPSC SMCs [2]): decreased significantly the detachment | detachment of HOZ mSMCs (HOZ mSMCs): significantly delayed | solubility of the compound (LmnaG609G/G609G mice; 3 mg/mL in PBS, IP injection): low solubility | number of SMCs in aortic arch (LmnaG609G/G609G mice; IP 30 mg/Kg/day, 5 times per week, 6 weeks, cell nuclei counting and qRT-PCR, versus untreated animals): higher number of SMCs than untreated animals | progerin in cells isolated from aortic arch (LmnaG609G/G609G mice; IP 30 mg/Kg/day, 6 weeks): No evidence of decrease of progerin | intra-abdominal accumulation (precipitate) (LmnaG609G/G609G mice; IP 30 mg/Kg/day, treatment reduced from 10 to 6 weeks): intra-abdominal massive accumulation | IC50 (MMP-9): ≤ 20 nM | IC50 (MMP-7): ≤ 20 nM

NC(=O)N1CCC(CC(=O)N2CCC([C@H]3c4ncc(Br)cc4CCc4cc(Cl)cc(Br)c43)CC2)CC1 [Lonafarnib]
cellular detachment (HGPS-iPSC SMCs [2]; HGPS-iPSC SMC clone 1, arterial flow, Tipifarnib 1 μM, Lonafarnib 20 μM): able to decrease cellular detachment

O=P([O-])([O-])OP(=O)([O-])[O-].[Na+].[Na+].[Na+].[Na+] [sodium pyrophosphate]
SMC detachment (HGPS-iPSC SMCs [2]; calcification inhibition, sodium pyrophosphate 0.9 mM, arterial flow): significant decreased in SMC detachment
